Data reported in patent publication EP0922455A1, “HIV-1 PROTEASE INHIBITORS, PROCESS FOR PRODUCING THE SAME, AND MEDICINAL COMPOSITIONS” (NISSUI PHARMACEUTICAL CO., LTD., priority 1997, dated 1998).
*1 amine or outer side, *2 acyl side, *3 side chain or, on linkers, in order; H or OH if unused. Where a SMILES comes first, the peptide text is derived from it. Where no end group is shown, it is not given here. [ ]: non-standard residue; d: D form. The star is where a group is joined. Myristoyl = CCCCCCCCCCCCCC(=O)*; Suc = O=C(CCC(=O)[*:2])[*:1]; Aoc = NCCCCCCCC(=O)O; Ahx = NCCCCCC(=O)O

Target: T1, HIV-1 protease (Human immunodeficiency virus type 1 group M subtype B, UniProt P03366)
Experiment: inhibitory activity against HIV-1 protease (cleavage of substrate Suc-Ser-Gln-Asn-Tyr-Pro-Ile-Val-Gln, HPLC / PICO-TAG analysis)
Format: biochemical
Design: β-galactosidase (fusion partner in the expressed precursor); made in house; host or cells: E. coli K12 (UT481)
Conditions: class symbols, inhibitory effect at 500 µM or less; read-out: IC50(µM) (Inhibitory effect)
Procedure: (§1) Plasmid pLB550-1 for expressing a fusion protein of partial pol protein containing HIV-1 protease and β-galactosidase was transfected into E. coli K12 (UT481) [Werman, K. F. et al. J. Bacteriol, 163: 376 - 384 (1985)] by the CaCl2 method, and was enzyme-induced by isopropyl-β-D(-)-thiogalactopyranoside and was cultured for 6 hours. Thereafter, the bacteria were collected. The bacterial were treated with lysozyme and crashed with glass beads. Subsequently, the solubilized supernatant was purified by DEAE-cellulofine, SP-Toyopearl and pepstatin A agarose column chromatography, to obtain a purified HIV-1 protease.
Synthesized peptide composed of Suc-Ser-Gln-Asn-Tyr-Pro-Ile-Val-Gln as a substrate was dissolved into 50 mM MES-NaOH buffer solution (pH 5.5) so that its concentration in enzyme reaction would be 0.57 mM, 1.25 mM, 1.43 mM, 1.67 mM and 2.0 mM. Into 50 µl of these substrate solutions, 50 µl of the purified enzyme solution of HIV-1 protease, obtained in the aforementioned preparing step, was added and then enzyme reaction was carried out at 37°C for 0 , 5, 10 and 15 minutes, respectively. To these solutions, 11.1 µl of acetonitryl containing 1% TFA was added to stop the enzyme reaction. The peptides obtained by the enzyme reaction were separated by high-performance liquid chromatography. Thereafter, enzyme activity thereof was measured by means of a PICO-TAG amino acid composition analyzing device. The initial velocities at the respective concentrations of the substrate were calculated and then analysis was performed based on by Lineweaver-Burk plots. […] In the substrate, the cleavage region was between Tyr and Pro.
On the other hand, the synthesized peptide, Suc-Ser-Gln-Asn-Tyr-Pro-Ile-Val-Gln as a substrate was used to measure inhibitory activity of the peptide of the sequence number 1 against HIV-1 protease as follows: 50 µl of the enzyme solution was added to 30 µl of solution of the peptide of the sequence number 1 in which the peptide was dissolved into 50 mM of MES-NaOH buffer solution (pH 5.5) so that its final concentration would be 10, 20, 40, 100 and 200 µM, and then enzyme reaction was carried out at 37 °C for 30 minutes.
Next, the solution of the substrate, Suc-Ser-Gln-Asn-Tyr-Pro-Ile-Val-Gln was added thereto so that its final concentration would be 1 mM, and then enzyme reaction was carried out at 37 °C for 0, 5, 10 and 15 minutes. To these solutions, 11.1 µl of acetonitryl containing 1% TFA was added to stop the enzyme reaction. The peptides obtained by the enzyme reaction were separated by high-performance liquid chromatography. Thereafter, enzyme activity thereof was measured by means of a PICO-TAG amino acid composition analyzing device. […] (The relative activity is represented as a percentage relative to the enzyme activity (value: 100) in the absence of the peptide of the sequence number 2.) From this graph, IC50 was calculated and obtained, so that IC50 was 10 µM.
50 µl of the enzyme solution was added to 30 µl of the peptide of the sequence number 2 dissolved into 50 mM of MES-NaOH buffer solution so that its final concentration would be 10 µM and then enzyme reaction was carried out at 37 °C for 30 minutes. The solution of the substrate, Suc-Ser-Gln-Asn-Tyr-Pro-Ile-Val-Gln was added thereto so that its final concentration would be 0.579 1.0, 1.43, 2.0 and 2.5 mM, and then enzyme reaction was carried out at 37 °C for 0, 5, 10 and 15 minutes. To these solutions, 11.1 µl of acetonitryl containing 1% TFA was added to stop the enzyme reaction, and then analysis was performed from Lineweaver-Burk plots. […] A control experiment was carried out in the absence of the peptide of the sequence number 2, in the same way.
(§2) Concerning these 30 kinds of compounds, inhibitory effect against of HIV protease and IC50 were measured in the same way as in 2) in Example 1.

Compound | IC50 [µM]
VTNTATIM [Compound 22, VTNTATIM] | ≥ 500
CSCC[C@H](NC(=O)CCCCCCCN)C(=O)O [Compound 27, N-AocM] | ≥ 500
AEAMSQVT [Compound 12, AEAMSQVT] | ≥ 500
CSCC[C@H](NC(=O)[C@H](C)NC(=O)[C@H](CCC(=O)O)NC(=O)[C@H](C)N)C(=O)N[C@@H](CO)C(=O)N[C@@H](CCC(N)=O)C(=O)NCCCCCCCC(=O)O [Compound 14, AEAMSQAoc] (H-AEAMSQ[Aoc]-OH) | ≥ 500
AEAMSQ [Compound 17, AEAMSQ] | ≥ 500
AAAMSQVTN [Compound 7, AAAMSQVTN] | ≤ 500
CSCC[C@H](NC(=O)[C@H](C)NC(=O)[C@H](CCC(=O)O)NC(=O)[C@H](C)N)C(=O)N[C@@H](CO)C(=O)N[C@@H](CCC(N)=O)C(=O)NCCCCCC(=O)O [Compound 15, AEAMSQAhx] (H-AEAMSQ[Ahx]-OH) | ≥ 500
AEAMSQV [Compound 13, AEAMSQV] | ≥ 500
CC(C)[C@H](N)C(=O)N[C@H](C(=O)N[C@@H](CC(N)=O)C(=O)O)[C@@H](C)O [Compound 21, VTN] (H-Val-Thr-Asn-OH) | ≥ 500
CSCC[C@H](NC(=O)[C@H](C)NC(=O)[C@H](CCC(=O)O)NC(=O)[C@H](C)NC(=O)CCC(=O)O)C(=O)N[C@@H](CO)C(=O)N[C@@H](CCC(N)=O)C(=O)NCCCCCC(=O)O [Compound 16, Suc-AEAMSQAhx] (Suc-AEAMSQ[Ahx]-OH) | ≥ 500
AEAMSQVAN [Compound 10, AEAMSQVAN] | ≥ 500
CC[C@H](C)[C@H](NC(=O)[C@@H](NC(=O)[C@H](C)NC(=O)[C@@H]1CCCN1C(=O)[C@H](CC(N)=O)NC(=O)[C@@H](NC(=O)[C@@H](NC(=O)[C@H](CCC(N)=O)NC(=O)[C@H](CO)NC(=O)[C@H](CCSC)NC(=O)[C@H](C)NC(=O)[C@H](CCC(=O)O)NC(=O)[C@H](C)N)C(C)C)[C@@H](C)O)[C@@H](C)O)C(=O)N[C@@H](CCSC)C(=O)O [Compound 3, AEAMSQVTNPATIM] | ≥ 500
CSCC[C@H](NC(=O)[C@H](C)NC(=O)[C@H](CCC(=O)O)NC(=O)[C@H](C)N)C(=O)O [Compound 19, AEAM] (H-AEAM-OH) | ≥ 500
CSCC[C@H](NC(=O)CCCCCCCNC(=O)CCCCCCCN)C(=O)NCCCCCCCC(=O)O [Compound 30, N-AocAocMAoc] | ≥ 500
CC[C@H](C)[C@H](NC(=O)[C@@H](NC(=O)[C@H](C)NC(=O)[C@@H](NC(=O)[C@H](CC(N)=O)NC(=O)[C@@H](NC(=O)[C@@H](NC(=O)[C@H](CCC(N)=O)NC(=O)[C@H](CO)NC(=O)[C@H](CCSC)NC(=O)[C@H](C)NC(=O)[C@H](CCC(=O)O)NC(=O)[C@H](C)N)C(C)C)[C@@H](C)O)[C@@H](C)O)[C@@H](C)O)C(=O)N[C@@H](CCSC)C(=O)O [Compound 4, AEAMSQVTNTATIM] | ≤ 500
AEAASQVTN [Compound 8, AEAASQVTN] | ≥ 500
CSCC[C@H](NC(=O)CCCCCCCN)C(=O)NCCCCCCCC(=O)NCCCCCCCC(=O)O [Compound 29, N-AocMAocAoc] | ≥ 500
AEAMAQVTN [Compound 9, AEAMAQVTN] | ≤ 500
AEAMSQVANTATIM [Compound 5, AEAMSQVANTATIM] | ≤ 500
CSCC[C@H](NC(=O)CCCCCCCN)C(=O)NCCCCCCCC(=O)O [Compound 28, N-AocMAoc] | ≥ 500

Same assay, conditions: same way as in 2) in Example 1; read-out: IC50

Compound | IC50 [µM]
CCCCCCCCCCCCCC(=O)N[C@@H](C)C(=O)N[C@@H](CCC(=O)O)C(=O)N[C@@H](C)C(=O)N[C@@H](CCSC)C(=O)O [Compound 20, N-Myr-AEAM] (Myristoyl-AEAM-OH) | 16
AEAMSQVTNSATIM [Compound 2, AEAMSQVTNSATIM] | 22
AEAMSQVTN [Compound 6, AEAMSQVTN] | 6
CCCCCCCCCCCCCC(=O)N[C@@H](C)C(=O)N[C@@H](CCC(=O)O)C(=O)N[C@@H](C)C(=O)N[C@@H](CCSC)C(=O)N[C@@H](CO)C(=O)N[C@@H](CCC(N)=O)C(=O)O [Compound 18, N-Myr-AEAMSQ] (Myristoyl-AEAMSQ-OH) | 79
AEAMSQVTL [Compound 11, AEAMSQVTL] | 53

Same assay, conditions: substrate 0.57-2.0 mM, pH 5.5, 37°C, Lineweaver-Burk plots (Fig. 1)

Compound | Km [µM]
CC[C@H](C)[C@H](NC(=O)[C@@H]1CCCN1C(=O)[C@H](Cc1ccc(O)cc1)NC(=O)[C@H](CC(N)=O)NC(=O)[C@H](CCC(N)=O)NC(=O)[C@H](CO)NC(=O)CCC(=O)O)C(=O)N[C@H](C(=O)N[C@@H](CCC(N)=O)C(=O)O)C(C)C [Suc-Ser-Gln-Asn-Tyr-Pro-Ile-Val-Gln, reference compound] (Suc-SQNYPIVQ-OH) | 2200

Target: T1, HIV-1 protease
Experiment: not given
Design: β-galactosidase (fusion partner in the expressed precursor); made in house; host or cells: E. coli K12 (UT481)
Conditions: Biochem. Biophys. Res. Commun. 194: 595 - 600; cited from earlier work

Compound | inhibitory activity
Ac-TVSFNF | has inhibitory activity

Target: T1, HIV-1 protease
Experiment: inhibitory activity against HIV-1 protease (cleavage of substrate Suc-Ser-Gln-Asn-Tyr-Pro-Ile-Val-Gln, HPLC / PICO-TAG analysis)
Format: biochemical
Design: partial pol protein containing HIV-1 protease; β-galactosidase (fusion partner in the expressed precursor); made in house; host or cells: E. coli K12 (UT481)
Conditions: same way as in 2) in Example 1
Procedure: as §1
Synthesized peptide composed of Suc-Ser-Gln-Asn-Tyr-Pro-Ile-Val-Gln as a substrate was dissolved into 50 mM MES-NaOH buffer solution (pH 5.5) so that its concentration in enzyme reaction would be 0.57 mM, 1.25 mM, 1.43 mM, 1.67 mM and 2.0 mM. […] Thereafter, enzyme activity thereof was measured by means of a PICO-TAG amino acid composition analyzing device. The initial velocities at the respective concentrations of the substrate were calculated and then analysis was performed based on by Lineweaver-Burk plots. […]
as §2

Compound | IC50 [µM]
CCCCCCCCCCCCCC(=O)N[C@@H](CCSC)C(=O)O [Compound 23, N-Myr-M] | 44
CCCCCCCCCCCC(=O)N[C@@H](CCSC)C(=O)O [Compound 25, N-Lau-M] | 124
